Legend:
[1] = system: primary cultures of neurons isolated from the rat brain cortex; assay: Glutamate level determination (chemiluminescent enzymatic assay); format: cell-based; settings: FIG. 5
Method: (§1) Primary cortical neuron cultures.
Assessment of glutamate release. Glutamate released by neurons in culture was evaluated in aliquots of the supernatants by means of a chemiluminescent enzymatic assay (Israel et al., Neurochem Int. 1993 Jan. 22(1):53-8).
The glutamate released by neurons was followed by an enzymatic assay coupled to a chemiluminescent reaction. […]

[2] = system: primary cultures of neurons, isolated from the rat brain cortex; assay: Neuroprotection assay: Ionomycin-evoked neuron cell death (LDH release); format: cell-based; settings: FIG. 4
Method: as §1
Assessment of neuron cell death.
The neurons were treated in vitro with 5 μM of Ionomycin (Sigma), a calcium ionophore, in presence of 10 μM of 1-Naphthol, in absence or in presence of 5 or 10 μM of 3-methylcholanthrene (3-MC, Aldrich), an UGT inducer which allows the in situ glucuronidation of 1-Naphthol.

[3] = system: primary cultures of neurons, isolated from the rat brain cortex; settings: 3-NP 400 μM, 24 hours; compound at 0.1, 1 and 5 μM; FIG. 2

## Oc1cccc2ccccc12 [1-Naphthol]
[1]; compound at 1 μM and 10 μM (lanes 4, 7)
  glutamate release by neurons: at both concentrations reduces the release of glutamate
[1]; compound at 10 μM plus 3-MC 1 or 5 μM
  glutamate release with glucuronidation by 3-MC: reinforces, dose dependently, the decrease of glutamate
[1]; compound at 10 μM
  glutamate release by neurons: reduces glutamate release
[1]; compound at 1 or 10 μM plus 3-Methylcholanthrene 5 μM (lanes 6, 9)
  significance of the improved decrease of glutamate with 3-Methylcholanthrene: statistically significant at the highest dose of 3-Methylcholanthrene
[2]; Ionomycin 5 μM, compound at 10 μM plus 3-MC 5 or 10 μM
  protective effect with in situ glucuronidation by 3-MC: reinforces, dose dependently, the protective effect
[2]; Ionomycin 5 μM, compound at 10 μM
  protection of neurons from Ionomycin-evoked cell death: protects neurons from Ionomycin-evoked cell death

## Cc1ccc2cc3c(ccc4ccccc43)c3c2c1CC3 [3-Methylcholanthrene, 3-methylcholanthrene, reference compound]
[1]; compound alone at 5 μM (lane 3)
  glutamate release by neurons: have no effect on glutamate release
[2]; Ionomycin 5 μM, compound alone at 5 or 10 μM (lanes 5, 6)
  protective effect against the toxicity induced by Ionomycin: no protective effect against the toxicity induced by Ionomycin
[2]; compound alone at 5 or 10 μM, no Ionomycin (lanes 2, 3)
  effect on the natural death of neurons: no effect on the natural death of neurons

## CN1C(=O)CN=C(c2ccccc2)c2cc(Cl)ccc21 [Diazepam]
[3]
  protection of neurons from 3-NP-evoked cell death: protects neurons from 3-NP at all tested doses

Reference: US20040014648A1, “Methods for the prevention and/or the treatment of neurological disorders” (FAUST PHARMACEUTICALS, priority 2002, published 2004)
